From patent publication US20250052763A1, “COMPOSITIONS AND METHODS FOR IDENTIFYING LIGANDS OF ODORANT RECEPTORS” (Duke University, priority 2021, published 2025)

System: odorant receptors (ORs) expressed by OSNs
Experiment: pS6-IP-Seq: identification of ORs activated by odorants in vivo
Parameters: species or system mouse
Conditions: for ORs identified as responsive by pS6-IP-Seq: responsive = log2FC>0 and FDR<0.05
Protocol: Phosphorylated S6 Ribosomal Capture (pS6-IP)
Mice used for pS6-IP were ˜3 weeks old, mixed sex, and littermates. Mice were killed by CO2 asphyxiation and cervical dislocation. Olfactory tissue was rapidly dissected in Buffer B (2.5 mM HEPES KOH pH 7.4, 0.63% glucose, 100 g/mL cycloheximide, 5 mM sodium fluoride, 1 mM sodium orthovanadate, 1 mM sodium pyrophosphate, 1 mM β-glycerophosphate, in Hank's balanced salt solution). Tissue pieces were then minced in 1.35 mL Buffer C (150 mM KCl, 5 mM MgCl2, 10 mM HEPES KOH pH 7.4, […], 2 mM DTT, 100 U/mL RNAsin, 100 µg/mL cycloheximide, protease inhibitor cocktail, 5 mM sodium fluoride, 1 mM sodium orthovanadate, 1 mM sodium pyrophosphate, 1 mM β-glycerophosphate) and subsequently transferred to homogenization tubes for steady homogenization at 250 rpm three times and at 750 rpm nine times at 4° C. […] This solution was mixed and then clarified at a max speed (17,000×g) for 10 min at 4° C. The resulting high-speed supernatant was transferred to a new tube where 20 μL was saved and transferred to a tube containing 350 L buffer RLT. To the remainder of the sample, 1.3 μL of 100 μg/mL cycloheximide, 27 μL of phosphatase inhibitor cocktail (250 mM sodium fluoride, 50 mM sodium orthovanadate, 50 mM sodium pyrophosphate, 50 mM β-glycerophosphate) and 6 μL of anti-pS6 antibody (Cell Signaling D68F8) were added. The sample was gently rotated for 90 min at 4° C. To prepare beads, 100 L of beads (Invitrogen 10002D) was washed three times with 900 L of buffer A (150 mM KCl, 5 mM MgCl2, 10 mM HEPES KOH pH 7.4, 10% NP40, 10% BSA), and once with 500 L of buffer C. Sample homogenate was added to the beads and incubated with gentle rotation for 60 min at 4° C. Following incubation, beads were washed with four times with 700 μL of buffer D (350 mM KCl, 5 mM MgCl2, 10 mM HEPES KOH pH 7.4, 10% NP40, 2 mM DTT, 100 U/mL RNAsin, 100 μg/mL cycloheximide, 5 mM sodium fluoride, 1 mM sodium orthovanadate, 1 mM sodium pyrophosphate, 1 mM β-glycerophosphate). During the final wash, beads were moved to room temperature, wash buffer was removed, and […] of buffer RLT was added. Beads were incubated in buffer RLT for 5 min at room temperature. Buffer RLT containing immunoprecipitated RNA was then eluted and stored at −80° C. until clean up using a kit (Qiagen 74004). cDNA was generated using 11 rounds of amplification with 10 ng RNA input. […] Libraries were sequenced on either HiSeq 2000/2500 (50 base pair single read mode) or NextSeq 500 (75 base pair single read mode) with 6-12 pooled indexed libraries per lane.
Reads mapping to Olfr290 were inferred from ENSMUSG00000070459, with the rationale that this gene model included ENSMUSG00000116179 plus untranslated regions. […] Intact Olfr genes with identifiable sequences were filtered, and p-values were then re-corrected by FDR. […] Raw and processed RNA-Seq datasets generated as part of this study are available from NCBI GEO at accession GSE185415.
First, ORs activated by a set of 61 odorants at various concentrations were determined by leveraging pS6-IP-Seq. […] ORs were considered odor-responsive if enrichment values (log2FC) were positive with a false discovery rate (FDR)<0.05.

SMILES	ORs identified as responsive by pS6-IP-Seq (odorant at 1%)	also measured
C=C(C)C1CCC(C)C(O)C1 (single isomer, unassigned; (+)) [(+)-dihydrocarveol]	no ORs were identified as responsive	–
C=C(C)C1CCC(C)C(O)C1 (single isomer, unassigned; (-)) [(−)-dihydrocarveol]	no ORs were identified as responsive	–
CC(=O)c1ccccc1O [2′-hydroxyacetophenone]	–	number of ORs identified as responsive, relative to the mean (odorant at 1%, excluded from all analysis): more than five standard deviations away from the mean
C=C1CC/C=C(\C)CC[C@@H]2[C@@H]1CC2(C)C [P-Caryophyllene]	no ORs were identified as responsive	–
C[C@]12CCC(=O)C[C@@H]1CC[C@@H]1[C@@H]2CC[C@]2(C)C=CC[C@@H]12 [androstenone]	–	ORs identified as responsive by pS6-IP-Seq (odorant at 3 mM): no ORs were identified as responsive
CSC [dimethyl sulfide]	no ORs were identified as responsive	–
CC(C)=CCC/C(C)=C/CO [geraniol]	no ORs were identified as responsive	–
c1ccc2[nH]ccc2c1 [indole]	no ORs were identified as responsive	–
CCC(=O)O [propionic acid]	no ORs were identified as responsive	–
